Reference: the CheMixHub viscosity set
± gives the uncertainty stated by the source.

Assay: xn = mol fraction of the nth substance listed
Conditions: 101.3 kPa

With `C=C(C)C(=O)OC` + CC(C)O the viscosity (298.15 K, x1 = 0.0556) was 1.716 ± 0.011 mPa·s, the viscosity (298.15 K, x1 = 0.1557) was 1.314 ± 0.008 mPa·s and the viscosity (298.15 K, x1 = 0.2605) was 1.034 ± 0.007 mPa·s. The viscosity (298.15 K, x1 = 0.3541) was 0.862 ± 0.006 mPa·s, the viscosity (298.15 K, x1 = 0.4318) was 0.76 ± 0.005 mPa·s and the viscosity (298.15 K, x1 = 0.5041) was 0.689 ± 0.005 mPa·s. It also gave a viscosity (298.15 K, x1 = 0.5537) of 0.651 ± 0.005 mPa·s, a viscosity (298.15 K, x1 = 0.6557) of 0.596 ± 0.004 mPa·s and a viscosity (298.15 K, x1 = 0.7561) of 0.567 ± 0.004 mPa·s. For the same compound, the viscosity (298.15 K, x1 = 0.8542) was 0.559 ± 0.004 mPa·s, the viscosity (298.15 K, x1 = 0.9512) was 0.571 ± 0.004 mPa·s and the viscosity (308.15 K, x1 = 0.0556) was 1.339 ± 0.008 mPa·s. The viscosity (308.15 K, x1 = 0.1557) was 1.051 ± 0.007 mPa·s, the viscosity (308.15 K, x1 = 0.2605) was 0.845 ± 0.006 mPa·s and the viscosity (308.15 K, x1 = 0.3541) was 0.717 ± 0.005 mPa·s. For the same compound, the viscosity (308.15 K, x1 = 0.4318) was 0.638 ± 0.004 mPa·s, the viscosity (308.15 K, x1 = 0.5041) was 0.583 ± 0.004 mPa·s and the viscosity (308.15 K, x1 = 0.5537) was 0.553 ± 0.004 mPa·s. It also gave a viscosity (308.15 K, x1 = 0.6557) of 0.509 ± 0.004 mPa·s, a viscosity (308.15 K, x1 = 0.7561) of 0.484 ± 0.004 mPa·s and a viscosity (308.15 K, x1 = 0.8542) of 0.477 ± 0.004 mPa·s. For the same compound, the viscosity (308.15 K, x1 = 0.9512) was 0.483 ± 0.004 mPa·s.
Compound `CCCCC/C=C\C/C=C\CCCCCCCC(=O)OCC(COC(=O)CCCCCCC/C=C\C/C=C\CCCCC)OC(=O)CCCCCCC/C=C\C/C=C\CCCCC` + Cc1ccc(C)cc1 has a viscosity (298.15 K, x1 = 0.000712) of 0.6159 ± 0.0044 mPa·s, a viscosity (298.15 K, x1 = 0.001435) of 0.6268 ± 0.0045 mPa·s and a viscosity (298.15 K, x1 = 0.00217) of 0.638 ± 0.0045 mPa·s. It also gave a viscosity (298.15 K, x1 = 0.002914) of 0.6494 ± 0.0046 mPa·s, a viscosity (298.15 K, x1 = 0.003771) of 0.6627 ± 0.0047 mPa·s and a viscosity (298.15 K, x1 = 0.004524) of 0.6742 ± 0.0047 mPa·s. The viscosity (298.15 K, x1 = 0.005322) was 0.6861 ± 0.0048 mPa·s, the viscosity (298.15 K, x1 = 0.006113) was 0.6966 ± 0.0049 mPa·s and the viscosity (303.15 K, x1 = 0.000712) was 0.5801 ± 0.0042 mPa·s. It also gave a viscosity (303.15 K, x1 = 0.001435) of 0.5903 ± 0.0042 mPa·s, a viscosity (303.15 K, x1 = 0.00217) of 0.6008 ± 0.0043 mPa·s and a viscosity (303.15 K, x1 = 0.002914) of 0.6115 ± 0.0044 mPa·s. It also gave a viscosity (303.15 K, x1 = 0.003771) of 0.6238 ± 0.0044 mPa·s, a viscosity (303.15 K, x1 = 0.004524) of 0.6346 ± 0.0045 mPa·s and a viscosity (303.15 K, x1 = 0.005322) of 0.6455 ± 0.0046 mPa·s. The viscosity (303.15 K, x1 = 0.006113) was 0.6549 ± 0.0046 mPa·s, the viscosity (308.15 K, x1 = 0.000712) was 0.5474 ± 0.004 mPa·s and the viscosity (308.15 K, x1 = 0.001435) was 0.557 ± 0.004 mPa·s. For the same compound, the viscosity (308.15 K, x1 = 0.00217) was 0.5668 ± 0.0041 mPa·s, the viscosity (308.15 K, x1 = 0.002914) was 0.5769 ± 0.0042 mPa·s and the viscosity (308.15 K, x1 = 0.003771) was 0.5885 ± 0.0042 mPa·s. The viscosity (308.15 K, x1 = 0.004524) was 0.5985 ± 0.0043 mPa·s, the viscosity (308.15 K, x1 = 0.005322) was 0.6085 ± 0.0043 mPa·s and the viscosity (308.15 K, x1 = 0.006113) was 0.617 ± 0.0044 mPa·s. The viscosity (313.15 K, x1 = 0.000712) was 0.5174 ± 0.0038 mPa·s, the viscosity (313.15 K, x1 = 0.001435) was 0.5265 ± 0.0039 mPa·s and the viscosity (313.15 K, x1 = 0.00217) was 0.5358 ± 0.0039 mPa·s. It also gave a viscosity (313.15 K, x1 = 0.002914) of 0.5453 ± 0.004 mPa·s, a viscosity (313.15 K, x1 = 0.003771) of 0.5561 ± 0.004 mPa·s and a viscosity (313.15 K, x1 = 0.004524) of 0.5654 ± 0.0041 mPa·s. It also gave a viscosity (313.15 K, x1 = 0.005322) of 0.5747 ± 0.0041 mPa·s, a viscosity (313.15 K, x1 = 0.006113) of 0.5824 ± 0.0042 mPa·s and a viscosity (318.15 K, x1 = 0.000712) of 0.49 ± 0.0036 mPa·s. For the same compound, the viscosity (318.15 K, x1 = 0.001435) was 0.4986 ± 0.0037 mPa·s, the viscosity (318.15 K, x1 = 0.00217) was 0.5074 ± 0.0037 mPa·s and the viscosity (318.15 K, x1 = 0.002914) was 0.5163 ± 0.0038 mPa·s. The viscosity (318.15 K, x1 = 0.003771) was 0.5265 ± 0.0039 mPa·s, the viscosity (318.15 K, x1 = 0.004524) was 0.5352 ± 0.0039 mPa·s and the viscosity (318.15 K, x1 = 0.005322) was 0.5437 ± 0.004 mPa·s. It also gave a viscosity (318.15 K, x1 = 0.006113) of 0.5507 ± 0.004 mPa·s.
